Laboratory results as given in article PMC3665789 (PLoS ONE, 2013).
Read-outs that look alike come from different tables or passages of the source.

What was measured:
HIV-2 ROD (R5/X4) [1] = details: read-out: EC50 (µM ± SEM), PBMCs, p27 HIV-2 Ag ELISA
[2] = tested on: HIV-1 ID12 (clinical isolate; R5); details: PBMCs; ID12, group M subtype A/E; p24 Ag ELISA
[3] = tested on: HIV-1 US2 (clinical isolate; R5/X4); details: PBMCs; US2, group M subtype B; p24 Ag ELISA
[4] = tested on: HSV-2 TK^- BA19026589 (clinical isolate); details: HEL cells, CPE
HIV-2 ROD (R5/X4) [5] = details: read-out: EC50 (µM ± SEM), MT-4 cells, MTS/PES method
[6] = Cytotoxicity assay (flow cytometry); format: cell-based; details: 3 days, read-out: 50% cytotoxic concentration (CC50)
Description: The vaginal epithelial cell lines HEC-1A and VK2 (500 µl; at a density of 1×10^6 cells/ml) were seeded in a 24-well plate and incubated for 3 days with various concentrations of LabyA1 (500 µl). Cell cytotoxicity was determined microscopically and by flow cytometry (FACSCalibur, BD Biosciences, Erembodegem, Belgium).

R5 HIV-1 gp120 YU2 = biological target: T1, R5 HIV-1 gp120 YU2 (Human immunodeficiency virus type 1 group M subtype B, UniProt P35961); assay: Surface plasmon resonance; format: binding
T1 construct: Recombinant gp120 proteins from X4 HIV-1 IIIB strain (ImmunoDiagnostics Inc., Woburn, MA) and from R5 HIV-1 strains ADA and YU2; purchased ImmunoDiagnostics Inc
Description: (§1) Recombinant gp120 proteins from X4 HIV-1 IIIB strain (ImmunoDiagnostics Inc., Woburn, MA) and from R5 HIV-1 strains ADA and YU2 (ImmunoDiagnostics Inc.) were covalently immobilized on a CM5 sensor chip in 10 mM sodium acetate, pH 4.0, using standard amine coupling chemistry. […] A reference flow cell was used as a control for non-specific binding and refractive index changes. […] Samples (in duplicate) were injected for 2 minutes at a flow rate of 45 µl/min and the dissociation was followed for 4 minutes. Several buffer blanks were used for double referencing. The CM5 sensor chip surface was regenerated with a single injection of 50 mM NaOH. A DMSO concentration series was included to eliminate the contribution of DMSO to the measured response. […] The experimental data were fit using the 1∶1 binding model Biacore T200 Evaluation software 1.0 to determine the binding kinetics.

X4 HIV-1 gp120 IIIB = biological target: T2, X4 HIV-1 gp120 IIIB (Human immunodeficiency virus type 1 group M subtype B, UniProt P04578); assay: Surface plasmon resonance; format: binding
T2 construct: Recombinant gp120 proteins from X4 HIV-1 IIIB strain; purchased ImmunoDiagnostics Inc., Woburn, MA
Description: as §1

HSV-2 wild-type = details: read-out: Median EC50; median over HSV-2 wild-type strains; HEL cells
HIV = details: read-out: anti-HIV activity EC50 range; range over all HIV strains in cell cultures
CD4 = biological target: T3, CD4 (Homo sapiens, UniProt P01730); assay: Anti-CD4 mAb binding on SupT1 cells (flow cytometry); details: SupT1 T cells; 9.6 µM or 1.9 µM
T3 construct: endogenous in cells; host or cells: SupT1 T cells (ATCC)
Description: To determine the interaction of LabyA1 with CD4, SupT1 cells (100 µl; 3×10^6 cells/ml) were incubated for 20 min at 4°C with 9.6 µM, 1.9 µM or 0 µM LabyA1. After extensive washing with PBS/FCS2% (PBS supplemented with 2% FCS), anti-CD4-PE conjugated mAbs RPA-T4 (eBioscience, Vienna, Austria), MT441 (Ancell, Enzo Life sciences) and OKT-4 (eBioscience) were added for 30 min at 4°C. For aspecific background staining, cells were incubated with SimulTest™ Control (IgGγ1-FITC/IgGγ2a-PE) (BD Biosciences). After washing, and fixation with 1% formaldehyde solution, samples were analyzed using the FACSCalibur and CellQuest software (BD Biosciences). The same protocol was applied for anti-CXCR4 evaluation using the fluorochrome conjugated mAbs 12G5-PE and 2B11-FITC (both BD Biosciences).

[7] = tested on: HSV-2 wild-type RV-24 (clinical isolate); details: HEL cells; HSV-2 RV-24; CPE
[8] = tested on: HSV-2 wild-type G (reference strain); details: HEL cells; HSV-2 G; CPE
[9] = tested on: HIV-1 NPO3 (clinical isolate; X4); details: PBMCs; NPO3, group M subtype E; p24 Ag ELISA
HSV-2 strain G = assay: Time-of-drug-addition study, HSV-2; format: cell-based; details: HEL cells; LabyA1 19 µM, ACV 35 µM; after 3 days
Description: TOA experiments for HSV-2 were performed identically as the viral replication assays, but each compound separately (LabyA1 or ACV) was added together with the virus (0 h) or after 2 h post-infection. The reference compound was added at least 100 times its EC50-value, as obtained in the HEL cell line (Table 3).

[10] = tested on: HIV-1 NL4.3^2G12res. (X4); details: read-out: EC50 (µM ± SEM); MT-4 cells; NL4.3 resistant to mAb 2G12; MTS/PES
[11] = tested on: HIV-1 UG273 (clinical isolate; R5); details: PBMCs; UG273, group M subtype A; p24 Ag ELISA
[12] = tested on: HIV-1 NL4.3 binding to CD4+ SupT1 cells; format: cell-based; details: LabyA1 9.6 µM, sCD4 10 µg/ml, AMD3100 12 µM; no compound MFI 9.8, background 3.9

## C/C=C1\NC(=O)[C@H](Cc2ccccc2)NC(=O)[C@@H]2CCCN2C(=O)[C@H](C(C)C)NC(=O)[C@H](Cc2c[nH]c3ccccc23)NC(=O)[C@]23CSC[C@H](NC1=O)C(=O)N[C@H](C(=O)O)CSSC[C@H](NC(=O)[C@@H]1CSC[C@]4(C[C@H](N)C(=O)N[C@@H](CC(N)=O)C(=O)N[C@@H](C)C(=O)N4)C(=O)N[C@@H](C(C)C)C(=O)N[C@@H](Cc4c[nH]c5ccccc45)C(=O)N[C@@H](CCC(=O)O)C(=O)N1)C(=O)N[C@@H](C2)C(=O)N[C@@H]([C@@H](C)O)C(=O)NCC(=O)N3 [LabyA1, labyrinthopeptin A1]
HIV-2 ROD (R5/X4) [1]
  EC50: 1 ± 0.3 µM
[2]
  EC50: 1.2 ± 0.8 µM
[3]
  EC50: 0.7 ± 0.19 µM
[4]
  EC50: 0.29 ± 0.1 µM
HIV-2 ROD (R5/X4) [5]
  EC50: 1.9 ± 0.7 µM
[6]; HEC-1A (endometrium carcinoma)
  CC50: 34 µM
[6]; VK2 (vaginal epithelial)
  CC50: > 48 µM
R5 HIV-1 gp120 YU2
  Kd: 9.8 ± 1.6 µM
X4 HIV-1 gp120 IIIB
  Kd: 7.8 ± 2.1 µM
HSV-2 wild-type
  EC50: 0.41 µM
HIV
  EC50: 0.7 to 3.3 µM
CD4
  effect on binding of anti-CD4 mAbs RPA-T4, MT441 and OKT4: no effect
[7]
  EC50: 0.41 ± 0.28 µM
[8]
  EC50: 0.32 ± 0.05 µM
[9]
  EC50: 1.6 ± 0.3 µM
HSV-2 strain G
  HSV-2 induced CPE, compound given simultaneously with virus (0 h): no CPE or viral replication were observed
  antiviral activity, compound added after 2 h adsorption period: significant decrease
[10]
  EC50: 2.2 ± 0.3 µM
[11]
  EC50: 1.9 ± 0.1 µM
[12]
  virus binding, mean fluorescence intensity (MFI) of anti-gp120 (9205) mAb: 9.2
